# Source: patent US20230130766A1 (SALK INSTITUTE FOR BIOLOGICAL STUDIES, priority 2020, published 2023)
# Biological target: T1, ULK1 (Homo sapiens, UniProt O75385)
# T1 sequence (O75385 1-1050): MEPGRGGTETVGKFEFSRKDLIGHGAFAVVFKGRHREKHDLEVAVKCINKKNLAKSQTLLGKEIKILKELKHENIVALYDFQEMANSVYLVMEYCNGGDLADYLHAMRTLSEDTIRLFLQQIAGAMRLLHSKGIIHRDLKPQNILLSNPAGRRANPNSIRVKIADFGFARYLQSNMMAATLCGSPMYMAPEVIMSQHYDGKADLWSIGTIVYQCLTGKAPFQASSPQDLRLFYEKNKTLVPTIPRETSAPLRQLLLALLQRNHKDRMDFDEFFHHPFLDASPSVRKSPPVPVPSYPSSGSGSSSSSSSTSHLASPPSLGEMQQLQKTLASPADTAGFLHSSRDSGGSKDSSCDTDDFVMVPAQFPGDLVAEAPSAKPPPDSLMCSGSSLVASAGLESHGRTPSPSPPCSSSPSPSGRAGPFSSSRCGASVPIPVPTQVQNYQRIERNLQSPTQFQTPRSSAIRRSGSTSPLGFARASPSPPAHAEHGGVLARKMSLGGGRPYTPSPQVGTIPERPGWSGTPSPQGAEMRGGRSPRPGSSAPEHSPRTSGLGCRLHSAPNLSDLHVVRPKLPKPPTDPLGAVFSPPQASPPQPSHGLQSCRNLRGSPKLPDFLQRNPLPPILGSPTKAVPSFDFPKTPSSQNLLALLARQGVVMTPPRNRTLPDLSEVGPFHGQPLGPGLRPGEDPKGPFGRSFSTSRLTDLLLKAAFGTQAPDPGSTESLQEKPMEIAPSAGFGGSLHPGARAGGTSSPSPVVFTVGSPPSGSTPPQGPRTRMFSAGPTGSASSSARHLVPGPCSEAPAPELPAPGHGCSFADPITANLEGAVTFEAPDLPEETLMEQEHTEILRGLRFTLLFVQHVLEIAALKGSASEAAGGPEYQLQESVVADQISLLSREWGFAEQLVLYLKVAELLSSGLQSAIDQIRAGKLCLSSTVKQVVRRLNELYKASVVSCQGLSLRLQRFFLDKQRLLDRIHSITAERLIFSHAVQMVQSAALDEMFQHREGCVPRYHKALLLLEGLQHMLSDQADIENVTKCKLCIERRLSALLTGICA
# Assay: ULK1 inhibition assay
# Type: biochemical
# Details: * = tested as a mixture of regioisomers
row,Compound,IC50
1,O=C1CCc2cc(Nc3ncc(C(F)(F)F)c(Nc4ccc5c(c4)OCO5)n3)ccc2N1 [124*],< 200 nM
2,COc1cccc(Nc2nc(Nc3ccc(OC(F)(F)F)c(Cl)c3)ncc2C(F)(F)F)c1 [136*],> 2000 nM
3,COc1cccc(Nc2nc(Nc3cc4ccccc4cc3O)ncc2C(F)(F)F)c1 [137*],200 to 2000 nM
4,NC(=O)c1cccc(Nc2ncc(C(F)(F)F)c(Nc3ccc4c(c3)OCO4)n2)c1 [138*],< 200 nM
5,FC(F)(F)c1cnc(Nc2ccc(-n3cccc3)cc2)nc1Nc1ccc2c(c1)OCO2 [139*],< 200 nM
6,FC(F)(F)c1cnc(Nc2ccc3c(c2)CCC3)nc1Nc1ccc2c(c1)OCO2 [140*],< 200 nM
7,COc1ccc(Nc2ncc(C(F)(F)F)c(Nc3ccc4c(c3)OCO4)n2)cc1 [144*],< 200 nM
8,FC(F)(F)c1cnc(Nc2cccc(Cl)c2Cl)nc1Nc1ccc2c(c1)OCO2 [147*],> 2000 nM
9,FC(F)(F)c1cnc(Nc2cccc(Oc3ccccc3)c2)nc1Nc1ccc2c(c1)OCO2 [149*],> 2000 nM
10,O=C1CCc2cc(Nc3ncc(C(F)(F)F)c(Nc4ccccc4)n3)ccc2N1 [157*],< 200 nM
11,CNC(=O)c1ccccc1Nc1nc(Nc2ccc(N3CCOCC3)cc2OC)ncc1Cl [Compound 12],< 200 nM
12,CNC(=O)c1ccccc1Nc1nc(Nc2cc(OC)c(OC)c(OC)c2)ncc1Cl [Compound 15],< 200 nM
13,CNC(=O)c1ccccc1Nc1nc(Nc2cc(OC)ccc2C)ncc1Cl [Compound 16],< 200 nM
14,CNC(=O)c1ccccc1Nc1nc(Nc2cc(OC)ccc2C)ncc1Br [Compound 17],< 200 nM
15,CNC(=O)c1ccccc1Nc1nc(Nc2ccc3c(c2)CCC(=O)N3)ncc1Cl [Compound 19],< 200 nM
16,CNC(=O)c1ccccc1Nc1nc(Nc2ccc3c(c2)CCC(=O)N3)ncc1Br [Compound 20],< 200 nM
17,CNC(=O)c1ccccc1Nc1nc(Nc2ccc3c(c2)CC(=O)N3)ncc1Cl [Compound 21],< 200 nM
18,COc1cc(Nc2ncc(Br)c(Nc3ccccn3)n2)cc(OC)c1OC [Compound 22],< 200 nM
19,CNC(=O)c1ccccc1Nc1nc(Nc2ccc3[nH]ccc3c2)ncc1Br [Compound 23],< 200 nM
20,COc1ccc(Nc2nc(Nc3cc(OC)c(OC)c(OC)c3)ncc2Cl)cn1 [Compound 24],< 200 nM
21,COc1ccc(Nc2nc(Nc3cc(OC)c(OC)c(OC)c3)ncc2Br)cn1 [Compound 25],< 200 nM
22,COc1ccc(Nc2nc(Nc3ccc(N4CCOCC4)cc3OC)ncc2Cl)cn1 [Compound 27],> 2000 nM
23,COc1ccc(Nc2nc(Nc3ccc4[nH]ccc4c3)ncc2Br)cn1 [Compound 30],< 200 nM
24,COc1cc(Nc2ncc(C(F)(F)F)c(NCc3cccc(S(C)(=O)=O)c3)n2)cc(OC)c1OC [Compound 31],< 200 nM
25,COc1ccc(C)c(Nc2ncc(Cl)c(Nc3ccc(OC)nc3)n2)c1 [Compound 34],> 2000 nM

row,Compound,IC50
1,COc1ccc(C)c(Nc2ncc(Br)c(Nc3ccc(OC)nc3)n2)c1 [Compound 35],> 2000 nM
2,CNC(=O)c1ccccc1Nc1nc(Nc2cc(OC)c(OC)c(OC)c2)ncc1C(F)(F)F [Compound 36],> 2000 nM
3,COc1ccc(Nc2nc(Nc3cc(OC)c(OC)c(OC)c3)ncc2C(F)(F)F)cn1 [Compound 37],< 200 nM
4,CNC(=O)c1ccccc1Nc1nc(Nc2ccc(N3CCOCC3)cc2OC)ncc1C(F)(F)F [Compound 39],< 200 nM
5,COc1ccc(Nc2nc(Nc3ccc(N4CCOCC4)cc3OC)ncc2C(F)(F)F)cn1 [Compound 40],> 2000 nM
6,COc1ccc(C)c(Nc2ncc(Cl)c(NCc3cccc(S(C)(=O)=O)c3)n2)c1 [Compound 41],> 2000 nM
7,CNC(=O)c1ccccc1Nc1nc(Nc2cc(OC)ccc2C)ncc1C(F)(F)F [Compound 42],< 200 nM
8,O=C1CCc2cc(Nc3ncc(C(F)(F)F)c(NCc4ccccc4)n3)ccc2N1 [Compound 43],< 200 nM
9,CNC(=O)c1ccccc1Nc1nc(Nc2cccc(OC)c2)ncc1Cl [Compound 44],< 200 nM
10,COc1ccc(C)c(Nc2ncc(Cl)c(Nc3cccc(S(=O)(=O)N(C)C)c3)n2)c1 [Compound 45],> 2000 nM
11,CNC(=O)c1ccccc1Nc1nc(Nc2ccc3c(c2)OCO3)ncc1Cl [Compound 49],< 200 nM
12,COc1ccc(C)c(Nc2ncc(C(F)(F)F)c(NCc3cccc(S(C)(=O)=O)c3)n2)c1 [Compound 50],> 2000 nM
13,CNC(=O)c1ccccc1Nc1nc(Nc2ccc3c(c2)OCCO3)ncc1Cl [Compound 51],< 200 nM
14,COc1cc(N2CCOCC2)ccc1Nc1ncc(C(F)(F)F)c(NCc2cccc(S(C)(=O)=O)c2)n1 [Compound 52],> 2000 nM
15,CNC(=O)c1ccccc1Nc1nc(Nc2ccccc2C)ncc1Cl [Compound 53],> 2000 nM
16,COc1ccc(C)c(Nc2ncc(Cl)c(Nc3cccc(CC#N)c3)n2)c1 [Compound 54],> 2000 nM
17,COc1ccc(C)c(Nc2ncc(Cl)c(Nc3nccc(C)n3)n2)c1 [Compound 55],> 2000 nM
18,CS(=O)(=O)c1cccc(CNc2nc(Nc3ccc4c(c3)CCC(=O)N4)ncc2F)c1 [Compound 56],> 2000 nM
19,CNC(=O)c1ccccc1Nc1nc(Nc2cc3c(cc2C)OCO3)ncc1Cl [Compound 57],< 200 nM
20,O=C1CCc2cc(Nc3ncc(C(F)(F)F)c(Nc4nccs4)n3)ccc2N1 [Compound 58],> 2000 nM
21,CNC(=O)c1ccccc1Nc1ccnc(Nc2cc(OC)c(OC)c(OC)c2)n1 [Compound 60],< 200 nM
22,N#CCc1cccc(Nc2nc(Nc3ccc4c(c3)CCC(=O)N4)ncc2C(F)(F)F)c1 [Compound 61],< 200 nM
23,O=C1CCc2cc(Nc3ncc(C(F)(F)F)c(SCc4ccccc4)n3)ccc2N1 [Compound 62],< 200 nM
24,O=C1CCc2cc(Nc3ncc(C(F)(F)F)c(C#Cc4ccccc4)n3)ccc2N1 [Compound 64],> 2000 nM
25,Cc1cnc(Nc2ccc3c(c2)CCC(=O)N3)nc1NCc1cccc(S(C)(=O)=O)c1 [Compound 67],> 2000 nM

row,Compound,IC50
1,O=C1CCc2cc(Nc3ncc(C(F)(F)F)c(/C=C/c4ccccc4)n3)ccc2N1 [Compound 69],< 200 nM
2,CNC(=O)c1ccccc1Nc1nc(Nc2cc(OC)c(OC)c(OC)c2)ncc1/C=C/c1ccccc1 [Compound 71],< 200 nM
3,O=C1CCc2cc(Nc3ncc(C(F)(F)F)c(-c4ccccc4)n3)ccc2N1 [Compound 72],> 2000 nM
4,CNC(=O)c1ccccc1Nc1nc(Nc2cc(OC)c(OC)c(OC)c2)ncc1-c1ccccc1 [Compound 73],< 200 nM
5,CNC(=O)c1ccccc1Nc1nc(Nc2ccc3c(c2)CCC(=O)N3)ncc1C(F)(F)F [Compound 76],< 200 nM
6,COc1cc(N2CCOCC2)ccc1Nc1ncc(Br)c(Nc2ccccc2S(=O)(=O)N(C)C)n1 [Compound 80],< 200 nM
7,O=C1CCc2cc(Nc3ncc(C(F)(F)F)c(OCc4ccccc4)n3)ccc2N1 [Compound 81],< 200 nM
8,COc1c(C)cnc(CNc2nc(Nc3ccc4c(c3)CCC(=O)N4)ncc2C(F)(F)F)c1C [Compound 82],< 200 nM
9,Cc1cccc(Oc2nc(Nc3ccc4c(c3)CCC(=O)N4)ncc2C(F)(F)F)c1C [Compound 83],< 200 nM
10,CNC(=O)c1ccccc1Nc1nc(Nc2ccc3c(c2)CCC(=O)N3)ncc1-c1ccccc1 [Compound 89],< 200 nM
11,CNC(=O)c1ccccc1Nc1nc(Nc2cc(N3CCOCC3)cc(N3CCOCC3)c2)ncc1C(F)(F)F [Compound 90],< 200 nM
12,CNC(=O)c1ccccc1Oc1nc(Nc2cc(OC)c(OC)c(OC)c2)ncc1C(F)(F)F [Compound 92],< 200 nM
13,CNC(=O)c1ccccc1Oc1nc(Nc2ccccc2)ncc1C(F)(F)F [Compound 99],> 2000 nM
14,CNC(=O)c1ccccc1Oc1nc(Nc2cc(Br)ccc2C)ncc1C(F)(F)F [Compound 100],> 2000 nM
15,CNC(=O)c1ccccc1Oc1nc(Nc2cc(OC)ccc2C)ncc1C(F)(F)F [Compound 101],> 2000 nM
16,CNC(=O)c1ccccc1Oc1nc(Nc2ccc(C)c(Br)c2)ncc1C(F)(F)F [Compound 102],> 2000 nM
17,CNC(=O)c1ccccc1Oc1nc(Nc2ccccc2OC)ncc1C(F)(F)F [Compound 103],> 2000 nM
18,CNC(=O)c1ccccc1Oc1nc(Nc2cc(C)ccc2C)ncc1C(F)(F)F [Compound 104],> 2000 nM
19,CNC(=O)c1ccccc1Oc1nc(Nc2ccc(OC)cc2)ncc1C(F)(F)F [Compound 105a],> 2000 nM
20,COc1ccc(Nc2ncc(C(F)(F)F)c(O)n2)cc1 [Compound 105b],> 2000 nM
21,CNC(=O)c1ccccc1Oc1nc(Nc2ccc(C)cc2Cl)ncc1C(F)(F)F [Compound 107],> 2000 nM
22,CNC(=O)c1ccccc1Oc1nc(Nc2ccc(Cl)c(Cl)c2)ncc1C(F)(F)F [Compound 108a],> 2000 nM
23,Oc1nc(Nc2ccc(Cl)c(Cl)c2)ncc1C(F)(F)F [Compound 108b],> 2000 nM
